Experimental data: patent US10407409B2, “6-(5-hydroxy-1H-pyrazol-1-yl)nicotinamide inhibitors of PHD” (Takeda Pharmaceutical Company Limited, priority 2013, dated 2019)

Tests used:
[1] = target: PHD2 enzyme (residues 181-417) (Homo sapiens (Human), UniProt Q9GZT9); assay: Inhibition of PHD enzyme (LC/MS peptide hydroxylation assay); type: biochemical; conditions: PHD2 (residues 181-417) 5 nM, 60 min pre-incubation; -log(IC50), IC50 molar
How it was run: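 Hydroxylated peptide quantified by LC/MS after 60 min turnover of 1 uM biotinylated peptide with 2 uM 2-oxoglutarate and 1 mM ascorbate, stopped by excess tight-binding inhibitor. Beforehand, 5 nM enzyme and compound were preincubated 60 min at RT, pH 7.3 HEPES/KCl/TCEP/FeCl2/BSA buffer. Values as pIC50 (−log molar IC50).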

[2] = test system: HIF1a protein in H9c2 rat cardiomyocytes; assay: Cell-based HIF-alpha stabilization assay (inhibition of PHD in cells); conditions: Rattus norvegicus, H9c2, 24 h, 24 hrs compound incubation, HIF1a protein by ELISA, read-out: Inhibition of PHD in cells (pEC50) (converted)
How it was run: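 HIF1a stabilization was measured by ELISA on lysates of H9c2 rat cardiomyocytes after 24 h exposure to 11 serial compound concentrations, expressed relative to the desferrioxamine maximum. Curve fits gave EC50. EC50pos denotes the concentration producing half the desferrioxamine maximal response.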

Chain of PHD2 enzyme (residues 181-417) (Q9GZT9 181-417): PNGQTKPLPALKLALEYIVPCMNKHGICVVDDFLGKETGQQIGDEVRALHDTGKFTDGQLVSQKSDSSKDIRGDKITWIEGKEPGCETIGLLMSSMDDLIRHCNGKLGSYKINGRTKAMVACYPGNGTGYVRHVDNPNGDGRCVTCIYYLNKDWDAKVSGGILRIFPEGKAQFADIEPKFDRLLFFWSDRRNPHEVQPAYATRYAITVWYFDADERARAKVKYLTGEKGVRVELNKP

| Structure (SMILES) | PHD Inhibition (pIC50) [1] | EC50 [2] |
| --- | --- | --- |
| C[C@H](NC(=O)c1ccc(-n2ncc(-c3ccc(C#N)cc3)c2O)nc1)C1CCOCC1 [Example 173, (S)-6-(4-(4-cyanophenyl)-5-hydroxy-1H-pyrazol-1-yl)-N-(1-(tetrahydro-2H-pyran-4-yl)ethyl)nicotinamide] | 7.21 | 1100 nM |
| N#Cc1ccc(-c2cnn(-c3ccc(C(=O)NCCC4CCOCC4)cn3)c2O)cc1 [Example 174, 6-(4-(4-cyanophenyl)-5-hydroxy-1H-pyrazol-1-yl)-N-(2-(tetrahydro-2H-pyran-4-yl)ethyl)nicotinamide] | 7.31 | 759 nM |
| COCCC(C)(C)NC(=O)c1ccc(-n2ncc(-c3ccc(C#N)cc3)c2O)nc1 [Example 175, 6-(4-(4-cyanophenyl)-5-hydroxy-1H-pyrazol-1-yl)-N-(4-methoxy-2-methylbutan-2-yl)nicotinamide] | 7.37 | 490 nM |
| COCCC(C)NC(=O)c1ccc(-n2ncc(-c3ccc(C#N)cc3)c2O)nc1 (centres unmarked) [Example 176, 6-(4-(4-cyanophenyl)-5-hydroxy-1H-pyrazol-1-yl)-N-(4-methoxybutan-2-yl)nicotinamide] | 7.53 | 398 nM |
| N#Cc1ccc(-c2cnn(-c3ccc(C(=O)NCCC4CCOC4)cn3)c2O)cc1 (centres unmarked) [Example 177, 6-(4-(4-cyanophenyl)-5-hydroxy-1H-pyrazol-1-yl)-N-(2-(tetrahydrofuran-3-yl)ethyl)nicotinamide] | 7.64 | 309 nM |
| N#Cc1ccc(-c2cnn(-c3ccc(C(=O)NCCC4CCCOC4)cn3)c2O)cc1 (centres unmarked) [Example 178, 6-(4-(4-cyanophenyl)-5-hydroxy-1H-pyrazol-1-yl)-N-(2-(tetrahydro-2H-pyran-3-yl)ethyl)nicotinamide] | 7.63 | 282 nM |
| COCCCCNC(=O)c1ccc(-n2ncc(-c3ccc(C#N)cc3C)c2O)nc1 [Example 179, 6-(4-(4-cyano-2-methylphenyl)-5-hydroxy-1H-pyrazol-1-yl)-N-(4-methoxybutyl)nicotinamide] | 8.3 | 123 nM |
| Cc1cc(C#N)ccc1-c1cnn(-c2ccc(C(=O)NCC3CCC3)cn2)c1O [Example 180, 6-(4-(4-cyano-2-methylphenyl)-5-hydroxy-1H-pyrazol-1-yl)-N-(cyclobutylmethyl)nicotinamide] | 8.2 | 398 nM |
| COC(C)CCNC(=O)c1ccc(-n2ncc(-c3ccc(C#N)cc3C)c2O)nc1 (centres unmarked) [Example 181, 6-(4-(4-cyano-2-methylphenyl)-5-hydroxy-1H-pyrazol-1-yl)-N-(3-methoxybutyl)nicotinamide] | 8.2 | 324 nM |
| COCC(C)CNC(=O)c1ccc(-n2ncc(-c3ccc(C#N)cc3C)c2O)nc1 (centres unmarked) [Example 182, 6-(4-(4-cyano-2-methylphenyl)-5-hydroxy-1H-pyrazol-1-yl)-N-(3-methoxy-2-methylpropyl)nicotinamide] | 8.1 | 309 nM |
| Cc1cc(C#N)ccc1-c1cnn(-c2ccc(C(=O)N[C@H]3CC[C@H](C)CC3)cn2)c1O [Example 183, 6-(4-(4-cyano-2-methylphenyl)-5-hydroxy-1H-pyrazol-1-yl)-N-((1r,4r)-4-methylcyclohexyl)nicotinamide] | 7.9 | 646 nM |
| COC1CN(C(=O)c2ccc(-n3ncc(-c4ccc(C#N)cc4C)c3O)nc2)C1 [Example 184, 4-(5-hydroxy-1-(5-(3-methoxyazetidine-1-carbonyl)pyridin-2-yl)-1H-pyrazol-4-yl)-3-methylbenzonitrile] | 8.1 | 214 nM |
| Cc1cc(C#N)ccc1-c1cnn(-c2ccc(C(=O)N3CC4(COC4)C3)cn2)c1O [Example 185, 4-(1-(5-(2-oxa-6-azaspiro[3.3]heptane-6-carbonyl)pyridin-2-yl)-5-hydroxy-1H-pyrazol-4-yl)-3-methylbenzonitrile] | 8 | 562 nM |
| Cc1cc(C#N)ccc1-c1cnn(-c2ccc(C(=O)NC3CN(C)C3)cn2)c1O [Example 186, 6-(4-(4-cyano-2-methylphenyl)-5-hydroxy-1H-pyrazol-1-yl)-N-(1-methylazetidin-3-yl)nicotinamide] | 7.8 | 295 nM |
| Cc1cc(C#N)ccc1-c1cnn(-c2ccc(C(=O)NC(C)(C)CN(C)C)cn2)c1O [Example 187, 6-(4-(4-cyano-2-methylphenyl)-5-hydroxy-1H-pyrazol-1-yl)-N-(1-(dimethylamino)-2-methylpropan-2-yl)nicotinamide] | 7.8 | 355 nM |
| N#Cc1ccc(-c2cnn(-c3ccc(C(=O)NCc4ccccc4)cn3)c2O)cc1F [Example 188, N-benzyl-6-(4-(4-cyano-3-fluorophenyl)-5-hydroxy-1H-pyrazol-1-yl)nicotinamide] | 7.3 | 5250 nM |

| Structure (SMILES) | PHD Inhibition (pIC50) [1] | EC50 [2] |
| --- | --- | --- |
| N#Cc1ccc(-c2cnn(-c3ccc(C(=O)NCC4CCOCC4)cn3)c2O)cc1F [Example 189, 6-(4-(4-cyano-3-fluorophenyl)-5-hydroxy-1H-pyrazol-1-yl)-N-((tetrahydro-2H-pyran-4-yl)methyl)nicotinamide] | 7.49 | 4680 nM |
| O=C(NCC1CCOCC1)c1ccc(-n2ncc(-n3ccc(=O)cc3)c2O)nc1 [Example 190, 6-(5-hydroxy-4-(4-oxopyridin-1(4H)-yl)-1H-pyrazol-1-yl)-N-((tetrahydro-2H-pyran-4-yl)methyl)nicotinamide] | 7 | 15800 nM |
| O=C(NCc1ccccc1)c1ccc(-n2ncc(-n3ccc(=O)cc3)c2O)nc1 [Example 191, N-benzyl-6-(5-hydroxy-4-(4-oxopyridin-1(4H)-yl)-1H-pyrazol-1-yl)nicotinamide] | 7.19 | 6760 nM |
| O=C(NCC1CCOCC1)c1ccc(-n2ncc(-n3ccccc3=O)c2O)nc1 [Example 192, 6-(5-hydroxy-4-(2-oxopyridin-1(2H)-yl)-1H-pyrazol-1-yl)-N-((tetrahydro-2H-pyran-4-yl)methyl)nicotinamide] | 6.84 | 50100 nM |
| O=C(NCc1ccccc1)c1ccc(-n2ncc(-n3ccccc3=O)c2O)nc1 [Example 193, N-benzyl-6-(5-hydroxy-4-(2-oxopyridin-1(2H)-yl)-1H-pyrazol-1-yl)nicotinamide] | 7.57 | 2690 nM |
| COc1cc(C#N)ccc1-c1cnn(-c2ccc(C(=O)NCC3CCOCC3)cn2)c1O [Example 194, 6-(4-(4-cyano-2-methoxyphenyl)-5-hydroxy-1H-pyrazol-1-yl)-N-((tetrahydro-2H-pyran-4-yl)methyl)nicotinamide] | 7.3 | 513 nM |
| COc1cc(C#N)ccc1-c1cnn(-c2ccc(C(=O)NCc3ccccc3)cn2)c1O [Example 195, N-benzyl-6-(4-(4-cyano-2-methoxyphenyl)-5-hydroxy-1H-pyrazol-1-yl)nicotinamide] | 7.01 | 2510 nM |
| N#Cc1ccc(-c2cnn(-c3ccc(C(=O)NCc4ccccc4)cn3)c2O)c(Cl)c1 [Example 196, N-benzyl-6-(4-(2-chloro-4-cyanophenyl)-5-hydroxy-1H-pyrazol-1-yl)nicotinamide] | 6.84 | 3550 nM |
| N#Cc1ccc(-c2cnn(-c3ccc(C(=O)NCC4CCOCC4)cn3)c2O)c(Cl)c1 [Example 197, 6-(4-(2-chloro-4-cyanophenyl)-5-hydroxy-1H-pyrazol-1-yl)-N-((tetrahydro-2H-pyran-4-yl)methyl)nicotinamide] | 6.83 | 1580 nM |
| CC1(NC(=O)c2ccc(-n3ncc(-c4ccc(C#N)cc4)c3O)nc2)CC1 [Example 198, 6-(4-(4-cyanophenyl)-5-hydroxy-1H-pyrazol-1-yl)-N-(1-methylcyclopropyl)nicotinamide] | 7.35 | 741 nM |
| COCC1(NC(=O)c2ccc(-n3ncc(-c4ccc(C#N)cc4)c3O)nc2)CCC1 [Example 199, 6-(4-(4-cyanophenyl)-5-hydroxy-1H-pyrazol-1-yl)-N-(1-(methoxymethyl)cyclobutyl)nicotinamide] | 6.89 | 2340 nM |
| COCC(C)(C)NC(=O)c1ccc(-n2ncc(-c3ccc(C#N)cc3)c2O)nc1 [Example 200, 6-(4-(4-cyanophenyl)-5-hydroxy-1H-pyrazol-1-yl)-N-(1-methoxy-2-methylpropan-2-yl)nicotinamide] | 7.09 | 1100 nM |
| COCC1(NC(=O)c2ccc(-n3ncc(-c4ccc(C#N)cc4)c3O)nc2)CC1 [Example 201, 6-(4-(4-cyanophenyl)-5-hydroxy-1H-pyrazol-1-yl)-N-(1-(methoxymethyl)cyclopropyl)nicotinamide] | 7.29 | 776 nM |
| CC(C)(C)NC(=O)c1ccc(-n2ncc(-c3ccc(C#N)cc3)c2O)nc1 [Example 202, N-(tert-butyl)-6-(4-(4-cyanophenyl)-5-hydroxy-1H-pyrazol-1-yl)nicotinamide] | 7.23 | 724 nM |
| COCCCNC(=O)c1ccc(-n2ncc(-c3ccnc(OC)c3)c2O)nc1 [Example 203, 6-(5-hydroxy-4-(2-methoxypyridin-4-yl)-1H-pyrazol-1-yl)-N-(3-methoxypropyl)nicotinamide] | 7.1 | 603 nM |
